The record followed here is US20080019931A1, “Method and composition for producing enhanced fingernails” (PROSTRONG, INC, priority 2004, published 2008).

This series in a line: Solubility in water. The series is classed as physicochemical.

For the compound `O=P([O-])([O-])P(=O)([O-])[O-].[Ca+2].[Ca+2]` [Calcium Hypophosphate], the solubility in water result is given as “soluble in water”.
